# Reference: ChEMBL document CHEMBL1201862, “PubChem BioAssay data set” (2004)
#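 Cultured in 96-well plates, cells were exposed to test compound for 48 hours across five concentrations. At the GI50, growth is halved.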 Active and inactive are the calls of the source. Rule as the data show it: active = GI50 up to about 1.1 µM and inactive = higher.
# Assays:
# Assay in all cases: growth of human tumour cells (NCI), 48 h
# [1] = test system: SNB-19
# [2] = test system: SK-MEL-2
# [3] = test system: HCC 2998
# [4] = test system: UACC-62
# [5] = test system: SK-MEL-28
# [6] = test system: K562
# [7] = test system: HCT-116
# [8] = test system: SF-295
# [9] = test system: NCI-H460
# [10] = test system: Hs-578T
# [11] = test system: HOP-92
# [12] = test system: MCF7
# [13] = test system: HOP-62
# [14] = test system: KM12
# [15] = test system: SF-539
# [16] = test system: DU-145
# [17] = test system: SNB-75
# [18] = test system: SF-268
# [19] = test system: ACHN
# [20] = test system: NCI-H226
SMILES,GI50 [1],GI50 [2],GI50 [3],GI50 [4],GI50 [5],GI50 [6],GI50 [7],GI50 [8],GI50 [9],GI50 [10],GI50 [11],GI50 [12],GI50 [13],GI50 [14],GI50 [15],GI50 [16],GI50 [17],GI50 [18],GI50 [19],GI50 [20]
O=C1/C(=C\c2ccc(F)cc2)CCOc2c1ccc1ccccc21,17.7 µM (inactive),45.7 µM (inactive),3.48 µM (inactive),37.2 µM (inactive),23.3 µM (inactive),6.68 µM (inactive),3.49 µM (inactive),22 µM (inactive),25.1 µM (inactive),40.3 µM (inactive),24.9 µM (inactive),10.4 µM (inactive),26.8 µM (inactive),7.94 µM (inactive),21.9 µM (inactive),31 µM (inactive),12.4 µM (inactive),23.4 µM (inactive),–,–
N#Cc1nc(/C=C/c2cccs2)oc1N,> 100 µM (inactive),> 100 µM (inactive),–,> 100 µM (inactive),> 100 µM (inactive),82.4 µM (inactive),> 100 µM (inactive),–,–,> 100 µM (inactive),35.8 µM (inactive),99.1 µM (inactive),> 100 µM (inactive),> 100 µM (inactive),–,> 100 µM (inactive),> 100 µM (inactive),> 100 µM (inactive),76.9 µM (inactive),–
O=C(O)c1ccc(S(=O)(=O)c2ccccc2[N+](=O)[O-])cc1,> 10 µM (inactive),> 10 µM (inactive),> 10 µM (inactive),> 10 µM (inactive),> 10 µM (inactive),> 10 µM (inactive),> 10 µM (inactive),> 10 µM (inactive),> 10 µM (inactive),> 10 µM (inactive),–,> 10 µM (inactive),> 10 µM (inactive),> 10 µM (inactive),> 10 µM (inactive),> 10 µM (inactive),> 10 µM (inactive),> 10 µM (inactive),> 10 µM (inactive),> 10 µM (inactive)
O=C1N2CCc3c([nH]c4ccccc34)C23CC2CCCCC12S3 (configuration not stated),> 100 µM (inactive),< 0.01 µM (active),–,> 100 µM (inactive),> 100 µM (inactive),34.6 µM (inactive),> 100 µM (inactive),> 100 µM (inactive),–,> 100 µM (inactive),> 100 µM (inactive),39.4 µM (inactive),> 100 µM (inactive),> 100 µM (inactive),> 100 µM (inactive),> 100 µM (inactive),–,> 100 µM (inactive),> 100 µM (inactive),> 100 µM (inactive)
CCN(CC)CCCOc1cc2c(cc1OC)C(=O)N1CCC[C@H]1C=N2,49.1 µM (inactive),46 µM (inactive),–,21.4 µM (inactive),18.1 µM (inactive),37.5 µM (inactive),32.4 µM (inactive),28.8 µM (inactive),97.7 µM (inactive),71.1 µM (inactive),24.6 µM (inactive),43 µM (inactive),23.3 µM (inactive),20 µM (inactive),42.7 µM (inactive),35.2 µM (inactive),–,41.4 µM (inactive),29.6 µM (inactive),24.4 µM (inactive)
C/C=C1\CN(C(=O)OC(C)(C)C)C1C(=O)OC(C)(C)C (configuration not stated),> 100 µM (inactive),> 100 µM (inactive),> 100 µM (inactive),> 100 µM (inactive),> 100 µM (inactive),> 100 µM (inactive),> 100 µM (inactive),> 100 µM (inactive),> 100 µM (inactive),27.7 µM (inactive),> 100 µM (inactive),> 100 µM (inactive),> 100 µM (inactive),–,> 100 µM (inactive),–,–,> 100 µM (inactive),> 100 µM (inactive),–
O=C1c2sc(-c3ccc(Cl)cc3)cc2-n2cccc21,> 100 µM (inactive),> 100 µM (inactive),> 100 µM (inactive),> 100 µM (inactive),> 100 µM (inactive),> 100 µM (inactive),> 100 µM (inactive),> 100 µM (inactive),> 100 µM (inactive),> 100 µM (inactive),–,> 100 µM (inactive),> 100 µM (inactive),> 100 µM (inactive),–,> 100 µM (inactive),> 100 µM (inactive),> 100 µM (inactive),> 100 µM (inactive),> 100 µM (inactive)
O=S(=O)(c1ccc(Br)cc1)n1c2ccc(Br)cc2c2nc3ccccc3nc21,49.3 µM (inactive),57.5 µM (inactive),> 100 µM (inactive),38.3 µM (inactive),> 100 µM (inactive),> 100 µM (inactive),> 100 µM (inactive),68.1 µM (inactive),> 100 µM (inactive),47.6 µM (inactive),39.7 µM (inactive),–,34.3 µM (inactive),> 100 µM (inactive),–,> 100 µM (inactive),25.9 µM (inactive),85.9 µM (inactive),39.6 µM (inactive),> 100 µM (inactive)
Cc1cc(O)nc2c3c(ccc12)OC(C)(C)C=C3,4.55 µM (inactive),10.2 µM (inactive),9.55 µM (inactive),5.01 µM (inactive),> 23.2 µM (inactive),4.22 µM (inactive),4.45 µM (inactive),10.3 µM (inactive),3.95 µM (inactive),3.52 µM (inactive),> 100 µM (inactive),3.48 µM (inactive),8.2 µM (inactive),4.28 µM (inactive),3.27 µM (inactive),3.58 µM (inactive),5 µM (inactive),6.7 µM (inactive),> 31.6 µM (inactive),–
COC(=O)/C1=C/c2c([nH]c3ccccc23)/C(C(=O)OC)=C\c2c1[nH]c1ccccc21 [CAULERPIN],33.7 µM (inactive),14.4 µM (inactive),–,19.9 µM (inactive),–,–,14.2 µM (inactive),40.3 µM (inactive),13.3 µM (inactive),16.8 µM (inactive),–,10.3 µM (inactive),10.9 µM (inactive),35.2 µM (inactive),33.5 µM (inactive),42 µM (inactive),–,19.5 µM (inactive),22.2 µM (inactive),> 50 µM (inactive)
Cc1ccc(N/C(SCc2ccccc2)=C(\C(Cl)=C(Cl)Cl)[N+](=O)[O-])c(C)c1,30.4 µM (inactive),39.6 µM (inactive),45.6 µM (inactive),23.6 µM (inactive),23.8 µM (inactive),–,16.8 µM (inactive),23.7 µM (inactive),41.7 µM (inactive),39.1 µM (inactive),–,35.3 µM (inactive),8.13 µM (inactive),17.2 µM (inactive),19.9 µM (inactive),6.31 µM (inactive),29.2 µM (inactive),14.3 µM (inactive),43 µM (inactive),45.2 µM (inactive)
CCCCC/C=C\C=C1\C(=O)C=C[C@@H]1C/C=C\CCCC(=O)O,4.51 µM (inactive),3.05 µM (inactive),–,3.94 µM (inactive),6.65 µM (inactive),1.62 µM (inactive),1.23 µM (inactive),3.87 µM (inactive),6.04 µM (inactive),2.47 µM (inactive),–,4.09 µM (inactive),2.89 µM (inactive),2.67 µM (inactive),5.82 µM (inactive),6.92 µM (inactive),9.66 µM (inactive),4.37 µM (inactive),2.72 µM (inactive),7.38 µM (inactive)
C#CCOCn1cc(C)c(=O)[nH]c1=O,> 100 µM (inactive),> 100 µM (inactive),> 100 µM (inactive),> 100 µM (inactive),> 100 µM (inactive),> 100 µM (inactive),> 100 µM (inactive),> 100 µM (inactive),> 100 µM (inactive),> 100 µM (inactive),–,> 100 µM (inactive),> 100 µM (inactive),> 100 µM (inactive),> 100 µM (inactive),> 100 µM (inactive),> 100 µM (inactive),> 100 µM (inactive),> 100 µM (inactive),> 100 µM (inactive)
O=C(NCCCCCCCCCCCCNC(=O)Nc1cccc2ccccc12)Nc1cccc2ccccc12,15.1 µM (inactive),15.2 µM (inactive),14.2 µM (inactive),12.6 µM (inactive),19.5 µM (inactive),20.2 µM (inactive),17.5 µM (inactive),14.1 µM (inactive),15.5 µM (inactive),14.7 µM (inactive),12.1 µM (inactive),18.3 µM (inactive),6.15 µM (inactive),18.4 µM (inactive),13.2 µM (inactive),24.3 µM (inactive),12.9 µM (inactive),14.3 µM (inactive),14 µM (inactive),–
Cc1cccc(Nc2cn(COCc3ccccc3)c(=O)[nH]c2=O)c1,> 100 µM (inactive),–,> 100 µM (inactive),> 100 µM (inactive),> 100 µM (inactive),> 100 µM (inactive),90.8 µM (inactive),72.1 µM (inactive),> 100 µM (inactive),49.3 µM (inactive),> 100 µM (inactive),72.6 µM (inactive),20.8 µM (inactive),> 100 µM (inactive),–,> 100 µM (inactive),–,50 µM (inactive),> 100 µM (inactive),–
CN(C)CCNC(=O)Cn1cc([N+](=O)[O-])c(=O)c2ccccc21,> 100 µM (inactive),> 100 µM (inactive),> 100 µM (inactive),> 100 µM (inactive),> 100 µM (inactive),> 100 µM (inactive),> 100 µM (inactive),> 100 µM (inactive),> 100 µM (inactive),> 100 µM (inactive),–,> 100 µM (inactive),> 100 µM (inactive),> 100 µM (inactive),> 100 µM (inactive),> 100 µM (inactive),58.3 µM (inactive),> 100 µM (inactive),> 100 µM (inactive),> 100 µM (inactive)
